# Measured values from ChEMBL document CHEMBL1201862, “PubChem BioAssay data set” (2004).
# Calls of active or inactive are those of the source.
# Legend:
# [1] = molecular target: Cytochrome P450 2C9 (Homo sapiens, UniProt P11712)
# [2] = molecular target: Lytic switch protein BZLF1 (Epstein-Barr virus (strain B95-8) (HHV-4) (Human herpesvirus 4), UniProt P03206); assay: EBV ZTA inhibitors, dose response, counter-screen for EBNA-1 inhibitor project, biochemical, fluorescence polarization, Epstein-Barr virus, 1536-well (AID 2377); design: species or system human gammaherpesvirus 4;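 further: fluorescence polarization of Cy5-labelled ZRE DNA probe bound by purified Zta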
# Chain of Lytic switch protein BZLF1 (P03206 whole entry): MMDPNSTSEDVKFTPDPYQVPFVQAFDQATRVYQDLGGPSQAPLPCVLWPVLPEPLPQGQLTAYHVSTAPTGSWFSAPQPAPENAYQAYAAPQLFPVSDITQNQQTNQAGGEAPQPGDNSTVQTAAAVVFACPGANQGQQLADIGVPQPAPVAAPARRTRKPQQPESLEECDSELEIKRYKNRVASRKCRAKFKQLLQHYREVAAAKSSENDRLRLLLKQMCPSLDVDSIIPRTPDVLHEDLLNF
# [3] = molecular target: Epstein-Barr nuclear antigen 1 (Epstein-Barr virus (strain B95-8) (HHV-4) (Human herpesvirus 4), UniProt P03211); assay: EBNA-1 inhibitors, dose response, biochemical, fluorescence polarization, 1536-well (AID 2381); design: species or system human gammaherpesvirus 4;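 further: fluorescence polarization of a Cy5 DNA probe bound by EBNA-1 protein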
# Chain of Epstein-Barr nuclear antigen 1 (P03211 whole entry): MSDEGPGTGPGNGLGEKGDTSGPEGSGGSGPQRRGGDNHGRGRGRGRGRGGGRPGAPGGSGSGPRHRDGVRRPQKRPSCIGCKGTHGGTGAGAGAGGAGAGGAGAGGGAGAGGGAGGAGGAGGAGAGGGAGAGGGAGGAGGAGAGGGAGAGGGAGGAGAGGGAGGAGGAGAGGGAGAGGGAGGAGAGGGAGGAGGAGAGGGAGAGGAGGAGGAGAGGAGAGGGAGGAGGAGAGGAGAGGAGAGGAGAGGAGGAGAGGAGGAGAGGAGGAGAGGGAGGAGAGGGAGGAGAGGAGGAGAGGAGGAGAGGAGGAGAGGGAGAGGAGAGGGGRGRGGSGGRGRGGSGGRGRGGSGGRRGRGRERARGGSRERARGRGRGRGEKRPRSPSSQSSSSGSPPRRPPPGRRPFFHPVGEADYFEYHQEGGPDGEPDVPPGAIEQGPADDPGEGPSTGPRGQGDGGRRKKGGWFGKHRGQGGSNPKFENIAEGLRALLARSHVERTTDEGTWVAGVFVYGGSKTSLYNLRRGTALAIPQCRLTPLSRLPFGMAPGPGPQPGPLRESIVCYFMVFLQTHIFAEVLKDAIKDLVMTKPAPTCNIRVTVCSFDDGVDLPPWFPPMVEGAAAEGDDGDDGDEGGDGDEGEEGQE
# [4] = cells
# [5] = HEp-2 cell cytotoxicity, dose response, cytotoxicity control for RSV inhibitor project, HTS (AID 2410); type: functional; settings: human respiratory syncytial virus
# [6] = Luminescence Cell-Based Dose Retest to Confirm Inhibitors of Cancer Stem Cells. [Related pubchem assays (depositor defined):AID2717, AID2721]; type: functional; settings: Homo sapiens
# [7] = microbe, parasite or virus in culture; type: functional; settings: Mycobacterium tuberculosis
# [8] = molecular target: Voltage-gated inwardly rectifying potassium channel KCNH2 (Homo sapiens, UniProt Q12809); assay: hERG protection from proarrhythmic block, potency, dose response, cell-based, thallium flux (AID 2121); type: ADME
# Chain of Voltage-gated inwardly rectifying potassium channel KCNH2 (Q12809 whole entry): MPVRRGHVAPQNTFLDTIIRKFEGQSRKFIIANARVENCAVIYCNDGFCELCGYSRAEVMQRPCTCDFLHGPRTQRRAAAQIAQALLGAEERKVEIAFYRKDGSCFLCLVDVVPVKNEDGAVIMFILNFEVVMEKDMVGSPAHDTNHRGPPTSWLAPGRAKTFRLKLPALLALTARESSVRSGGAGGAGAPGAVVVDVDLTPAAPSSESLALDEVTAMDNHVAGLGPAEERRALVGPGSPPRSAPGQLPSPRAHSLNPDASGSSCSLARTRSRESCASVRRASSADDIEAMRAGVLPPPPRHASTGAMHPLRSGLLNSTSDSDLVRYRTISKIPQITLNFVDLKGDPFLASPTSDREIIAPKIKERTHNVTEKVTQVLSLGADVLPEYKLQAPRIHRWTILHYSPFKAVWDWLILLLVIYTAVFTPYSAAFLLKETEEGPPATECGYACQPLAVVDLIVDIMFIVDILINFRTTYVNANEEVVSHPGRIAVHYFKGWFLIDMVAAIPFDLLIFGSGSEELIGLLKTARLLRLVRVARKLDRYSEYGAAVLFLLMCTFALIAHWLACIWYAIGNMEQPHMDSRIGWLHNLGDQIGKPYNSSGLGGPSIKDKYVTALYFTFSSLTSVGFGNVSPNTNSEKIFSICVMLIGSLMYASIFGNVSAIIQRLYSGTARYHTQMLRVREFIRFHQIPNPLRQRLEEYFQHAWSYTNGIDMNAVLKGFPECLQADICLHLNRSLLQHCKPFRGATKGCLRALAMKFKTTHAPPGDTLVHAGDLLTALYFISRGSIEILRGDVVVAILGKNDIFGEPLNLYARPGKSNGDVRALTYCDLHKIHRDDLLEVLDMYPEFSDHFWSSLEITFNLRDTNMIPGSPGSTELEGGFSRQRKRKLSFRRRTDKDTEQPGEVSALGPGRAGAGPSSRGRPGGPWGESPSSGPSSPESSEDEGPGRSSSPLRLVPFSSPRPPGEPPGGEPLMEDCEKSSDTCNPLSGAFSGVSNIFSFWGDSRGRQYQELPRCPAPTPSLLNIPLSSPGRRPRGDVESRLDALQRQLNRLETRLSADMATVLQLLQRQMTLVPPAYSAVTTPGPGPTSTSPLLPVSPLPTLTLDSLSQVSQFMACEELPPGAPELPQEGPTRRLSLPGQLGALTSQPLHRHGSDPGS
# [9] = molecular target: T1, Bcl-2-related protein A1 (Mus musculus, UniProt Q07440); assay: Bfl-1 binding inhibitors, SAR follow-up, biochemical, fluorescence polarization (AID 1070)
# T1 sequence (Q07440 whole entry): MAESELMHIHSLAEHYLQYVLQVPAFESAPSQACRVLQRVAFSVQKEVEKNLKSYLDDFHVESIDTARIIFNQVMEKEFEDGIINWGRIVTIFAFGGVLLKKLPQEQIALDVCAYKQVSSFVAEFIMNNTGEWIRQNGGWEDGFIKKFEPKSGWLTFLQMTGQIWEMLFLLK
# [10] = molecular target: T1, Bcl-2-related protein A1; assay: Bfl-1 inhibitors blocking BH3 peptide binding, confirmation, biochemical, TR-FRET, mouse Bfl-1 (AID 621);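 further: TR-FRET binding of GST-Bfl-1 to FITC-labelled Bid peptide via terbium antibody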
# [11] = system: HEK293; assay: cells; settings: Homo sapiens
# [12] = system: HEK293; assay: cells; settings: Homo sapiens; remark: listed apart in the source
# [13] = molecular target: T2, Estrogen receptor (Homo sapiens, UniProt P03372);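 further: potency for inhibiting coactivator peptide recruitment to the receptor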
# T2 sequence (P03372 whole entry): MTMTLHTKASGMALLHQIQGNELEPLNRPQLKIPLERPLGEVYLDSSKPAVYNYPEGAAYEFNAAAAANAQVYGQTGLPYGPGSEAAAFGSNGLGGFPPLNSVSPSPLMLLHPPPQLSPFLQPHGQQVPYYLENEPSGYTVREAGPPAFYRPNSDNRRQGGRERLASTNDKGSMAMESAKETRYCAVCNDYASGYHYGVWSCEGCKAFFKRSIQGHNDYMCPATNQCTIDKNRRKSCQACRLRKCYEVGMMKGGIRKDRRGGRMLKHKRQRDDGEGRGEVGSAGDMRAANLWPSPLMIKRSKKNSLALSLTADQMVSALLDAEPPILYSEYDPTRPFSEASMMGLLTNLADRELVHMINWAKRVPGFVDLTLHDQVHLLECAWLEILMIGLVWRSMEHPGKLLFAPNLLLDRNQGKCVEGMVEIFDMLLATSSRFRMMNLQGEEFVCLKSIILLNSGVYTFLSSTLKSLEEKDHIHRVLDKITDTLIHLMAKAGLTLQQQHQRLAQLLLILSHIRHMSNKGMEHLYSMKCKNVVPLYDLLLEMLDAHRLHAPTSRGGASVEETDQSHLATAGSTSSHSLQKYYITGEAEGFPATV
# [14] = molecular target: T2, Estrogen receptor; assay: potentiators of ERα–SRC-1 coactivator binding, dose response, biochemical, TR-FRET, ERα LBD (AID 737)
# [15] = A Cell Based Secondary Assay To Explore Cytotoxicity of Compounds that Sensitize Mycobacterium Tuberculosis to Beta-Lactam Antibiotics.; type: functional
# [16] = molecular target: FAD-linked sulfhydryl oxidase ALR (Homo sapiens, UniProt P55789); assay: inhibitors of human ALR sulfhydryl oxidase, dose response, biochemical, H2O2 detection, luminescence, cherry-pick (AID 493248)
# Chain of FAD-linked sulfhydryl oxidase ALR (P55789 whole entry): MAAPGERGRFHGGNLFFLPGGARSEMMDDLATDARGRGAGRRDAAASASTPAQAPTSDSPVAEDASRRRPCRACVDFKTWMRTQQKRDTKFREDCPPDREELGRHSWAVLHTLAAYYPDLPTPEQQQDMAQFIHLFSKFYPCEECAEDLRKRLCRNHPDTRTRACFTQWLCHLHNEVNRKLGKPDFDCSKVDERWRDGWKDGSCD
# [17] = molecular target: T3, Rac GTPase-activating protein 1 (Homo sapiens, UniProt Q9H0H5); assay: MgcRacGAP GTPase-activating activity inhibitors, confirmation, biochemical, ADP Hunter fluorescence, primary and confirmatory (AID 624330); type: functional
# T3 sequence (Q9H0H5 whole entry): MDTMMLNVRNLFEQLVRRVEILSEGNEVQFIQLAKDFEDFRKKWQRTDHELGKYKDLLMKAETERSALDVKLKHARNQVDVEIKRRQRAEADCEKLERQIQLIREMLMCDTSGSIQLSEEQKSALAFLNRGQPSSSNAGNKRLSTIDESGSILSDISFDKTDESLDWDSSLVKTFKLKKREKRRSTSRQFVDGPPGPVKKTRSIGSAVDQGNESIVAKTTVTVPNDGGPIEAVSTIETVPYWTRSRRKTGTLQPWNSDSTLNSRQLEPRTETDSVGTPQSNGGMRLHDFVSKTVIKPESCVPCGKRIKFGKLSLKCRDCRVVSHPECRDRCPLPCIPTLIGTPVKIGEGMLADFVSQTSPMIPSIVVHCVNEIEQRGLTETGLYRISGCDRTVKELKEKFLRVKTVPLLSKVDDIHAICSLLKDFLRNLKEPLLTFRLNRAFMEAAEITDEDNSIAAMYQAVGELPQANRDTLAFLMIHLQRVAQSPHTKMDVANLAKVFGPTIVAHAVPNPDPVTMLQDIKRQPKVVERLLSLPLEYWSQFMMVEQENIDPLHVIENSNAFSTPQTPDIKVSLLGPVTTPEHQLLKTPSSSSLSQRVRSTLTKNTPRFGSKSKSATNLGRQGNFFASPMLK
# [18] = Luminescent dose response cell-based high throughput screening assay for inhibitors of the Janus kinase 2 mutant JAK2V617F. [Related pubchem assays: 1446 (Primary screen.), 1521 (Confirmation assay.), 1486 (Counter screen.)]; type: functional
# [19] = system: BJ; assay: cytotoxicity toward BJ-TERT-LT-ST fibroblasts, dose response, cell-based, RAS-independent, luminescence (AID 1935); type: functional; settings: Homo sapiens;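 further: BJ fibroblasts immortalized with TERT plus LT and ST oncogenes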
# [20] = cytotoxicity toward DRD oncogenic fibroblasts, dose response, cell-based, non-viral oncogenic, luminescence (AID 1934); type: functional; settings: Homo sapiens
# [21] = system: BJ; assay: cytotoxicity toward Ras-transformed BJeLR fibroblasts, dose response, cell-based, alamar blue fluorescence, cherrypicked samples (AID 2631); type: functional; settings: Homo sapiens;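 further: confirmatory dose-response assay in RAS-dependent BJ fibroblasts engineered with TERT, LT and ST, with cytotoxicity read by fluorescence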
# [22] = system: BJ; assay: cytotoxicity toward BJ-TERT fibroblasts, dose response, cell-based, RAS-independent, luminescence (AID 1933); type: functional; settings: Homo sapiens
# [23] = system: BJ; assay: cells; type: functional, cell-based; settings: Homo sapiens
# [24] = cells; type: functional
# [25] = molecular target: Galanin receptor type 2 (Homo sapiens, UniProt O43603); assay: Dose Response cell-based high-throughput screening assay to identify antagonists of galanin receptor 2 (GALR2). [Related pubchem assays: 828, 866 ]; type: functional
# Chain of Galanin receptor type 2 (O43603 whole entry): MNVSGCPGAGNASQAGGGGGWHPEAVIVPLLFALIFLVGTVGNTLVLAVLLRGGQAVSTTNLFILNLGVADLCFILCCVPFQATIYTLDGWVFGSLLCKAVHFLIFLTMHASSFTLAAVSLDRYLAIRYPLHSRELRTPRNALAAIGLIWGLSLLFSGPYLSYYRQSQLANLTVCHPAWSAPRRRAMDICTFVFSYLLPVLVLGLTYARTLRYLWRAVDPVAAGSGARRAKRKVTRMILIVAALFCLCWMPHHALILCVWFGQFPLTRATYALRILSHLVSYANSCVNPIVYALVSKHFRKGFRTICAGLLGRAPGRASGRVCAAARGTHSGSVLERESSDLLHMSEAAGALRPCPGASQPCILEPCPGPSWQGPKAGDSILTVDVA
# [26] = molecular target: T4, Estrogen receptor beta (Homo sapiens, UniProt Q92731); assay: ERβ–SRC-3 coactivator interaction inhibitors, confirmation, orthogonal assay, biochemical, ELISA, streptavidin-HRP readout (AID 1060)
# T4 sequence (Q92731 whole entry): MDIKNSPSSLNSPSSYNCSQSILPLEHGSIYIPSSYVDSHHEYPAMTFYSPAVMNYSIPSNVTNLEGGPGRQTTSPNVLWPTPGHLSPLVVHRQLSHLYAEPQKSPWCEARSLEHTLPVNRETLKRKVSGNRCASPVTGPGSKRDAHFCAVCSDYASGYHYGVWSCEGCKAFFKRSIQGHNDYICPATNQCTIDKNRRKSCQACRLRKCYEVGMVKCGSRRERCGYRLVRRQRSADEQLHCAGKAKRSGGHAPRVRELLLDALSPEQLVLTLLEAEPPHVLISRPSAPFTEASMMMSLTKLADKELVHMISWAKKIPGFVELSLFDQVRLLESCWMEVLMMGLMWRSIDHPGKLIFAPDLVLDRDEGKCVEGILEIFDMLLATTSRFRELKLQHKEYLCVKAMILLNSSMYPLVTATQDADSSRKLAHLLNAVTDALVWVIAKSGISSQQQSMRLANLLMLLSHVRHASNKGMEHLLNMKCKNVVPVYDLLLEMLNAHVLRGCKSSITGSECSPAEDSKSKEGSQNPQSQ
# [27] = molecular target: T4, Estrogen receptor beta
# [28] = molecular target: 5-hydroxytryptamine receptor 1A (Homo sapiens, UniProt P08908); type: functional
# Chain of 5-hydroxytryptamine receptor 1A (P08908 whole entry): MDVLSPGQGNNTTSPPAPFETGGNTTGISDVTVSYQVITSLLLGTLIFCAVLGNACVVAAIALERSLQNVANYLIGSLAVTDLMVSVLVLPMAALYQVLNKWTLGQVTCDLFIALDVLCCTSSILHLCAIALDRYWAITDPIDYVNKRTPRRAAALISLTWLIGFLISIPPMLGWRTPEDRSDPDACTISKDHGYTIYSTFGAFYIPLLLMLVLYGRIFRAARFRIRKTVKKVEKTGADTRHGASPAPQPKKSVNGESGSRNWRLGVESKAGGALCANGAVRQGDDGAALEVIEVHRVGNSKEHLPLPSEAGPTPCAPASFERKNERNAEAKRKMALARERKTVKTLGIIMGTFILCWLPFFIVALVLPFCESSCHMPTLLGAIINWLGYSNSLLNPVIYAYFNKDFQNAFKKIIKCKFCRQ
# [29] = molecular target: T5, Heat shock factor protein 1 (Mus musculus, UniProt P38532); assay: HSF1 potentiators in luciferase reporter cells, confirmation, cell-based, NIH3T3, luminescence, dose retest (AID 435004); type: functional;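 further: stress induced by proteasome inhibitor MG132 added 30 min after compound; luciferase reporter driven by HSF1 response element in NIH3T3 cells; actives raise luminescence as potentiators of the MG132 stress response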
# T5 sequence (P38532 whole entry): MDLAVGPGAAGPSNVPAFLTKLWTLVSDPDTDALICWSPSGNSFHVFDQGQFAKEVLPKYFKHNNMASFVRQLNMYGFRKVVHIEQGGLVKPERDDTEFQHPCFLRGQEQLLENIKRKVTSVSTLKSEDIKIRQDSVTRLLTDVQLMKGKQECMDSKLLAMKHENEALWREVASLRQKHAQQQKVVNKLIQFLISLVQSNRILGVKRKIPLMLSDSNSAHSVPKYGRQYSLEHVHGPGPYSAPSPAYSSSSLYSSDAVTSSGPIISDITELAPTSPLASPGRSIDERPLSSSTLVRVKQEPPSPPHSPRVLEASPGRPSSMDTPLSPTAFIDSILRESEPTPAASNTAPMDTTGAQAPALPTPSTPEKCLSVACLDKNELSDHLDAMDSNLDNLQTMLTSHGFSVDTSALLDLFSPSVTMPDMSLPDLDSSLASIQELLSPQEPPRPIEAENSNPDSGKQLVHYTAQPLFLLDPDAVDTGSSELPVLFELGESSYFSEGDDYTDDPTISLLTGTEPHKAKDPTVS
# [30] = Fluorescence-based cell-based high throughput dose response assay for inhibitors of the interaction of nucleotide-binding oligomerization domain containing 2 (NOD2) and the receptor-interacting serine-threonine kinase 2 (RIPK2).; type: functional; settings: Homo sapiens
# [31] = Glucagon-like peptide 1 release potency, NCI-H716 cell line, dose-response, half-maximal inhibitory concentration (AID 1117344); type: functional, cell-based
# [32] = half-maximal inhibitory concentration for glucagon-like peptide-1 release, STC-1 cell line, dose-response (AID 1117345); type: functional, cell-based
# Chain of Cytochrome P450 2C9 (P11712 whole entry): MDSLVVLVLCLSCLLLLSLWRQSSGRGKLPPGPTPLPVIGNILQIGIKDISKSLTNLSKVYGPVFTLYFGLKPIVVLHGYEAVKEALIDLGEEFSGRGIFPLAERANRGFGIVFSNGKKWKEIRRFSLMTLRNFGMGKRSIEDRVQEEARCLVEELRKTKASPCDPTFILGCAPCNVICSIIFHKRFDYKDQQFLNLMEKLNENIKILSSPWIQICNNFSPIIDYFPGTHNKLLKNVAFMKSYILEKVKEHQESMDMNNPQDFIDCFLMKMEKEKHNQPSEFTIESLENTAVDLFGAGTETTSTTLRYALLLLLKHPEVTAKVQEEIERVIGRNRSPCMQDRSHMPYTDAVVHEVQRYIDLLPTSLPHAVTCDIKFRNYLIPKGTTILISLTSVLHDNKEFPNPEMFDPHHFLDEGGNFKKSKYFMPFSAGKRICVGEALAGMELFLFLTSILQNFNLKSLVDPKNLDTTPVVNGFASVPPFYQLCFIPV
structure (smiles),measurement,setting,value
Cn1cc(/C=C2/SC(=O)N(CC(=O)Nc3ccc4c(c3)OCO4)C2=O)c2ccccc21,AC50,[1],7.08 µM (inconclusive)
same,IC50,[2],> 111 µM (not active)
same,IC50,[3],5.72 µM (active)
COc1ccc(C(C(=O)NC2CCCC2)N(C(=O)c2snc(C(N)=O)c2N)c2cc(C)ccc2OC)cc1OC (stereo not drawn),IC50,[4],6.11 µM (active)
O=C(NC(=S)Nc1ccc(N2CCCCC2)c(Cl)c1)c1cccs1,CC50,[5],17.3 µM (active)
same,AC50,[6],6.16 µM (active)
same,CC50,[7],> 40 µM (active)
same,EC50,[8],0.2 µM (active)
c1ccc(-n2nnc(-c3cnc4ccccc4c3)n2)cc1,IC50,[9],> 100 µM (not active)
same,IC50,[10],> 100 µM (not active)
Clc1ncccc1-c1nnn(-c2ccccc2)n1,IC50,[9],> 100 µM (not active)
same,IC50,[10],> 100 µM (not active)
O=C(Nc1ccccc1[N+](=O)[O-])C1=C(O)CCn2c1nc1ccccc12,EC50,[11],> 59.7 µM (inactive)
same,EC50,[12],> 59.7 µM (inactive)
same,IC50,[13],18.6 µM (active)
CCOc1ccccc1N1C(=O)NC(=O)C(CCc2ccncc2)(CCc2ccncc2)C1=O,EC50,[14],12.7 µM (active)
Cc1ccc(C(=O)c2oc3ccccc3c2NC(=O)c2cc(-c3cc(C)ccc3O)[nH]n2)cc1,CC50,[15],7.97 µM (active)
CN(c1ccccc1)S(=O)(=O)c1cccc(C(=O)NCCc2ccc(O)c(O)c2)c1,AC50,[16],4.37 µM (active)
same,IC50,[17],69.2 µM (active)
same,IC50,[18],7.29 µM (active)
Nc1nc(CCl)nc(N(c2ccccc2)c2ccccc2)n1,EC50,[19],12.1 µM (inconclusive)
same,EC50,[20],0.674 µM (active)
same,EC50,[21],0.229 µM (active)
same,IC50,[18],0.721 µM (active)
same,EC50,[22],0.652 µM (inconclusive)
same,EC50,[23],2.65 µM (active)
CC1CCCCC1NC(=S)NC(=O)c1sc2ccccc2c1Cl (stereo not drawn),EC50,[8],4.87 µM (active)
COc1ccc(NC(=O)CSc2nc(N)c(C(=O)Nc3ccc(N(C)C)cc3)s2)cc1,CC50,[15],> 40 µM (active)
CCCCC1CCC(C(=O)Nc2ccc(S(=O)(=O)Nc3nccs3)cc2)CC1 (stereo not drawn),CC50,[5],34.3 µM (active)
same,IC50,[24],14.5 µM (active)
same,IC50,[4],36.5 µM (active)
COc1ccc(NC(=O)NCc2ccc3c(c2)OCO3)c(OC)c1,IC50,[2],> 111 µM (not active)
same,IC50,[3],18.3 µM (not active)
Cc1ccc(S(=O)(=O)NCc2ccncc2)cc1,IC50,[25],> 42 µM (not active)
O=C(COC(=O)C1CC2C=CC1C2)NCc1ccco1 (stereo not drawn),IC50,[26],> 109 µM (not active)
same,IC50,[27],7.15 µM (active)
CN1CC=C(c2c[nH]c3ccccc23)CC1,EC50,[28],12 µM (not active)
COc1cc(/C=C/[N+](=O)[O-])ccc1O,EC50,[19],> 75 µM (inconclusive)
same,EC50,[20],10.3 µM (active)
same,EC50,[29],8.18 µM (active)
same,EC50,[21],4.46 µM (active)
same,EC50,[22],10.6 µM (inconclusive)
same,EC50,[23],15.5 µM (active)
same,IC50,[30],4.84 µM (active)
same,IC50,[25],> 4.6 µM (not active)
C/C=C(/C(=C/C)c1ccc(O)cc1)c1ccc(O)cc1 [DIENESTROL],IC50,[31],> 40 µM (inactive)
same,EC50,[14],13.2 µM (active)
same,IC50,[32],> 40 µM (inactive)
